Read-outs that look alike come from different tables or passages of the source.

Data set [1] deals with Caco-2 monolayer. In words: Caco-2 Permeability Assay. Format: in vitro ADME, human. Put shortly:
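Bidirectional transport at 37 °C for 90 min, 10 μM donor concentration, with or without Pgp inhibitor, across 21-day Caco-2 monolayers with TEER >600 […] in HEPES-buffered HBSS, pH 7.4. LC-MS/MS of donor and receiver samples gives Papp, B→A/A→B efflux ratio and mass recovery.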

Data set [2] in a line: Stability in Simulated Intestinal Fluid (SIF). Type of data set: in vitro ADME. Set-up: key: % parent compound remaining relative to 0-minute sample. Put shortly:
(§1)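 2 μg/mL final; SGF + pepsin pH 1.2 or SIF + pancreatin pH 6.8; 37° C, 150 rpm, 0–60 min. ACN quench with propranolol IS, LC-MS/MS. % parent vs 0 min; t1/2 from ln plot.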

Data set [3] can be described thus: Stability in Simulated Gastric Fluid (SGF). Format: in vitro ADME. More on the design: key: % parent compound remaining relative to 0-minute sample. Put shortly: as §1
A short description of data set [4]: Plasma Stability. Format: in vitro ADME, human. Put shortly: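 Parent compound quantified by LC-MS/MS after acetonitrile precipitation, reported as percent of control remaining (triplicate). Incubation: 1 hour, 37° C, fresh human plasma, compound at 1 μM.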
Where [5] appears, read: bare number, unit or time not given, the 15th table Examples 204-207.
Where [6] appears, read: simulated intestinal fluid, remaining at 1 h.
[7] abbreviates: simulated gastric fluid, remaining at 1 h.

Consider `CCCCCCCCOC(=O)OCSc1nc(=O)c2c(ccn2COC(=O)OCCCCCCCC)n1CCOC(C)C` [Example 207, octyl {2-[{{[(octyloxy)carbon-yl]oxy}methyl)sulfanyl]-4-oxo-1-[2-(propan-2-yloxy)ethyl]-1H,4H,5H-pyrrolo[3,2-d]pyrimidin-5-yl} methyl carbonate], for which the “Caco-2 Papp” value in data set [1] (Caco-2 monolayer, the 15th table) is 0.267 ×10⁻⁶ cm/s. For the same compound, the SIF in data set [2] (setting [5]) is 29. Also, in data set [3] (setting [5]), the SGF is recorded as 90. Moreover, the “human Plasma stability” value in data set [4] (% remaining at 1 h in human plasma, the 15th table) worked out at 92% remaining.

Turning to `COc1ccc(N(C)C(=O)OCSc2nc(=O)c3[nH]ccc3n2CCOC(C)C)cc1` [Example 254], the “Caco-2 Papp” value in data set [1] (Caco-2 monolayer) is 8.53 ×10⁻⁶ cm/s. Also, in data set [2] (simulated intestinal fluid, at 1 h), the SIF is 94% remaining. In addition, the SGF in data set [3] (simulated gastric fluid, at 1 h) is given as 95% remaining. Further, the “human Plasma stability” value in data set [4] (human plasma, at 1 h) is recorded as 88% remaining.

`CC(C)OCCn1c(SCOC(=O)[C@H](N)Cc2ccccc2)nc(=O)c2c1ccn2COC(=O)[C@H](N)Cc1ccccc1.O=C(O)C(F)(F)F.O=C(O)C(F)(F)F` [Example 312, bis(trifluoroacetic acid) {[5-({[(2R)-2-amino-3-phenylpropanoyl]oxy}methyl)-4-oxo-1-[2-(propan-2-yloxy)ethyl]-1H,4H,5H-pyrrolo[3,2-d]pyrimidin-2-yl]sulfanyl} methyl (2R)-2-amino-3-phenylpropanoate]: the “Caco-2 Papp” value in data set [1] (Caco-2) was greater than 0.0994 ×10⁻⁶ cm/s. For the same compound, the SIF in data set [2] (% remaining @ 1 h) was 29% @ 1 h. Also, the SGF in data set [3] (% remaining @ 1 h) is 99% @ 1 h. Besides, the “human Plasma stability” value in data set [4] (% remaining @ 1 h) was 24% @ 1 h.

`CC(C)C[C@H](NC(=O)OC(C)(C)C)C(=O)OCSc1nc(=O)c2c(ccn2COC(=O)[C@H](CC(C)C)NC(=O)OC(C)(C)C)n1CCOC(C)C` [Example 315, {[5-({[(2S)-2-{[ (tert-butoxy)carbonyl]amino}-4-methylpentanoyl]oxy}methyl)-4-oxo-1-[2-(propan-2-yloxy)ethyl]-1H,4H,5H-pyrrolo[3,2-d]pyrimidin-2-yl]sulfanyl} methyl (2S)-2-{[(tert-butoxy)carbonyl]amino}-4-methylpentanoate]: in data set [1] (Caco-2), the “Caco-2 Papp” value stood at 14.1 ×10⁻⁶ cm/s. For the same compound, in data set [2] (% remaining @ 1 h), the SIF is reported as 5%@ 1 h. Also, the SGF in data set [3] (% remaining @ 1 h) is listed as 78%@ 1 h. The “human Plasma stability” value in data set [4] (% remaining @ 1 h) stood at 7%@ 1 h.

Consider `CC(C)OCCn1c(SCOC(=O)CCCCOC(=O)CNC(=O)OC(C)(C)C)nc(=O)c2c1ccn2COC(=O)CCCCOC(=O)CNC(=O)OC(C)(C)C` [Example 329, ({5-[{{5-[(2-{[(tert-butoxy)carbonyl]amino}acetyl)oxy]pentanoyl}oxy)methyl]-4-oxo-1-[2-(propan-2-yloxy)ethyl]-1H,4H,5H-pyrrolo[3,2-d]pyrimidin-2-yl}sulfanyl)methyl 5-[(2-{[(tert-butoxy)carbonyl]amino}acetyl)oxy] pentanoate], for which the “Caco-2 Papp” value in data set [1] was found to be 5.96 ×10⁻⁶ cm/s. Also, the SIF in data set [2] (% remaining @ 1 h) is reported as 35% @ 1 h. Besides, the SGF in data set [3] (% remaining @ 1 h) is on record as 95% @ 1 h. In data set [4] (% remaining @ 1 h), the “human Plasma stability” value was found to be 1% @ 1 h.

With `CC(C)C[C@H](NC(=O)OC(C)(C)C)C(=O)OCCCCC(=O)OCn1c(=O)c2c(ccn2COC(=O)CCCCOC(=O)[C@H](CC(C)C)NC(=O)OC(C)(C)C)n(CCOC(C)C)c1=S` [Example 344, 5-[(3-{[(5-{[(2S)-2-{[(tert-butoxy)carbonyl]amino}-4-methylpentanoyl]oxy}penta-noyl)oxy]methyl}-4-oxo-1-[2-(propan-2-yloxy)ethyl]-2-sulfanylidene-1H,2H,3H,4H,5H-pyrrolo[3,2-d]pyrimidin-5-yl)methoxy]-5-oxopentyl (2S)-2-{[(tert-butoxy)carbonyl]amino}-4-methylpentanoate], the “Caco-2 Papp” value in data set [1] (Caco-2) is 2.46 ×10⁻⁶ cm/s. Further, the SIF in data set [2] (% remaining @ 1 h) is recorded as 26% remaining. In data set [3] (% remaining @ 1 h), the SGF was 100% remaining. Besides, the “human Plasma stability” value in data set [4] (% remaining @ 1 h) is on record as 28% remaining.

Turning to `CC(C)C[C@@H](NC(=O)OC(C)(C)C)C(=O)OCCCCC(=O)OCn1c(=O)c2c(ccn2COC(=O)CCCCOC(=O)[C@@H](CC(C)C)NC(=O)OC(C)(C)C)n(CCOC(C)C)c1=S` [Example 349, 5-[(3-{[(5-{[(2R)-2-{[(tert-butoxy)carbonyl]amino}-4-methylpentanoyl]oxy}penta-noyl)oxy]methyl}-4-oxo-1-[2-(propan-2-yloxy)ethyl]-2-sulfanylidene-1H,2H,3H,4H,5H-pyrrolo[3,2-d]pyrimidin-5-yl)methoxy]-5-oxopentyl (2R)-2-{[(tert-butoxy)carbonyl]amino}-4-methylpentanoate], the “Caco-2 Papp” value in data set [1] (Caco-2 monolayer) stood at 4.99 ×10⁻⁶ cm/s. Moreover, the SIF in data set [2] (setting [6]) is recorded as 8% remaining. Further, the SGF in data set [3] (setting [7]) is recorded as 99% remaining. Moreover, in data set [4] (human plasma, remaining at 1 h), the “human Plasma stability” value worked out at 6% remaining.

Turning to `CC(C)OCCn1c(SCOC(=O)CCCOC(=O)[C@H](NC(=O)OC(C)(C)C)C(C)C)nc(=O)c2c1ccn2COC(=O)CCCOC(=O)[C@H](NC(=O)OC(C)(C)C)C(C)C` [Example 357, 4-{[2-({[(4-{[(2R)-2-{[(tert-butoxy)carbonyl]amino}-3-methylbutanoyl]oxy}buta-noyl)oxy]methyl}sulfanyl)-4-oxo-1-[2-(propan-2-yloxy)ethyl]-1H,4H,5H-pyrrolo[3,2-d]pyrimidin-5-yl]methoxy}-4-oxobutyl (2R)-2-{[(tert-butoxy)carbonyl]amino}-3-methylbutanoate], the “Caco-2 Papp” value in data set [1] (Caco-2 monolayer) was found to be 1.5 ×10⁻⁶ cm/s. The SIF in data set [2] (setting [6]) is reported as 14% remaining. Also, the SGF in data set [3] (setting [7]) is listed as 98% remaining. Further, the “human Plasma stability” value in data set [4] (human plasma, remaining at 1 h) was found to be 5% remaining.

With `CC(C)OCCn1c(=S)n(COC(=O)CCCOC(=O)[C@H](NC(=O)OC(C)(C)C)C(C)C)c(=O)c2c1ccn2COC(=O)CCCOC(=O)[C@H](NC(=O)OC(C)(C)C)C(C)C` [Example 359, (((1-(2-isopropoxyethyl)-4-oxo-2-thioxo-1,4-dihydro-3H-pyrrolo[3,2-d]pyrimidine-3,5(2H)-diyl)bis(methylene))bis(oxy))bis(4-oxobutane-4,1-diyl) (2R,2′R)-bis(2-((tert-butoxycarbonyl)amino)-3-methylbutanoate)], the “Caco-2 Papp” value in data set [1] (Caco-2 monolayer) is less than 0.297 ×10⁻⁶ cm/s. The SIF in data set [2] (setting [6]) is 41% remaining. In data set [3] (setting [7]), the SGF is on record as 99% remaining. Also, the “human Plasma stability” value in data set [4] (human plasma, remaining at 1 h) worked out at 8% remaining.

As for `CC(C)OCCn1c(=S)n(COC(=O)CCCOC(=O)[C@H](N)C(C)C)c(=O)c2c1ccn2COC(=O)CCCOC(=O)[C@H](N)C(C)C.O=C(O)C(F)(F)F.O=C(O)C(F)(F)F` [Example 360, bis(trifluoroacetic acid) 4-[(3-{[(4-{[(2R)-2-amino-3-methylbutanoyl]oxy}buta-noyl)oxy]methyl}-4-oxo-1-[2-(propan-2-yloxy)ethyl]-2-sulfanylidene-1H,2H,3H,4H,5H-pyrrolo[3,2-d]pyrimidin-5-yl)methoxy]-4-oxobutyl (2R)-2-amino-3-methylbutanoate], the “Caco-2 Papp” value in data set [1] (Caco-2 monolayer) was less than 0.628 ×10⁻⁶ cm/s. In addition, the SIF in data set [2] (setting [6]) is 56% remaining. Moreover, the SGF in data set [3] (setting [7]) is listed as 46% remaining. The “human Plasma stability” value in data set [4] (human plasma, remaining at 1 h) is reported as 3% remaining.

Turning to `CC(C)OCCn1c(=S)[nH]c(=O)c2c1ccn2C(=O)NCCOCCNC(=O)[C@H](NC(=O)OC(C)(C)C)C(C)C` [Example 378, tert-butyl N-[(1R)-2-methyl-1-({2-[2-({4-oxo-1-[2-(propan-2-yloxy)ethyl]-2-sulfanylidene-1H,2H,3H,4H,5H-pyrrolo[3,2-d]pyrimidine-5-carbonyl}amino)ethoxy]ethyl}carba-moyl)propyl]carbamate], the “Caco-2 Papp” value in data set [1] (Caco-2 monolayer) is 0.0903 ×10⁻⁶ cm/s. The SIF in data set [2] (simulated intestinal fluid, bare number, unit or time not given) is on record as 96. Moreover, the SGF in data set [3] (simulated gastric fluid, bare number, unit or time not given) is reported as 98. Also, the “human Plasma stability” value in data set [4] (human plasma, remaining at 1 h) amounted to 93% remaining.

The record behind these values is US20240067651A1 (Biohaven Therapeutics Ltd., priority 2019, published 2024).
